Reference: ChEMBL document CHEMBL1201862, “PubChem BioAssay data set” (2004)
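Cultured in 96-well plates, cells were exposed to test compound for 48 hours across five concentrations. GI50 is the concentration that inhibits growth by half.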 Activity calls are given as the source filed them. Rule as the data show it: active = GI50 up to about 1.1 µM and inactive = higher. Non-standard residues stand in square brackets, D forms with d. Residues, ends and D or L forms follow the SMILES beside them. ξ: configuration not given here. Pentanoyl(2-O,4-OH,5-Cl) = O=C(O)C(O)CC(O)CCl; Ile(3ξ) = CCC(C)[C@H](N)C(=O)O; NMeV = CN[C@H](C(=O)O)C(C)C; NMeA = CN[C@@H](C)C(=O)O; βAla = NCCC(=O)O

Tests used:
Assay in all cases: inhibition of tumour cell growth, NCI panel, 48 h
786-0 = system: 786-0
A498 = system: A498
A549 = system: A549
ACHN = system: ACHN
CAKI-1 = system: CAKI-1
HCT-15 = system: HCT-15
HOP-62 = system: HOP-62
Hs-578T = system: Hs-578T
IGROV-1 = system: IGROV-1
M14 = system: M14
NCI-H226 = system: NCI-H226
OVCAR-4 = system: OVCAR-4
OVCAR-5 = system: OVCAR-5
SF-268 = system: SF-268
SF-295 = system: SF-295
SF-539 = system: SF-539
SK-OV-3 = system: SK-OV-3
SW-620 = system: SW-620
UACC-62 = system: UACC-62
UO-31 = system: UO-31

SMILES | GI50 (786-0) | GI50 (A498) | GI50 (A549) | GI50 (ACHN) | GI50 (CAKI-1) | GI50 (HCT-15) | GI50 (HOP-62) | GI50 (Hs-578T) | GI50 (IGROV-1) | GI50 (M14) | GI50 (NCI-H226) | GI50 (OVCAR-4) | GI50 (OVCAR-5) | GI50 (SF-268) | GI50 (SF-295) | GI50 (SF-539) | GI50 (SK-OV-3) | GI50 (SW-620) | GI50 (UACC-62) | GI50 (UO-31)
O=[N+]([O-])c1cccc2nccc(NCC(O)CO)c12 (stereo not drawn) | 18 µM (inactive) | 7.66 µM (inactive) | 15.1 µM (inactive) | 20.6 µM (inactive) | 16 µM (inactive) | 8.85 µM | 17.6 µM (inactive) | 7.8 µM (inactive) | 16.1 µM (inactive) | 17.4 µM (inactive) | 12.2 µM (inactive) | 18.5 µM (inactive) | 21 µM (inactive) | 19.8 µM (inactive) | 21 µM (inactive) | 17.7 µM (inactive) | 25.4 µM (inactive) | 14.5 µM (inactive) | 15 µM (inactive) | 18.2 µM (inactive)
CC(C)CC(N)C(=O)NC(CNC(CCC(N)=O)C(=O)NC(CC(C)C)C(=O)NC(CC(C)C)C(=O)O)Cc1ccc2ccccc2c1 (stereo not drawn) | > 10 µM (inactive) | > 10 µM (inactive) | > 10 µM (inactive) | > 10 µM (inactive) | 9.31 µM (inactive) | > 10 µM | > 10 µM (inactive) | > 10 µM (inactive) | > 10 µM (inactive) | > 10 µM (inactive) | > 10 µM (inactive) | > 10 µM (inactive) | > 10 µM (inactive) | > 10 µM (inactive) | > 10 µM (inactive) | > 10 µM (inactive) | > 10 µM (inactive) | > 10 µM (inactive) | > 10 µM (inactive) | > 10 µM (inactive)
CCC(C)[C@@H]1NC(=O)[C@@H]2CCCN2C(=O)C(CC(O)CCl)OC(=O)CCNC(=O)[C@H](C)N(C)C(=O)[C@H](C(C)C)N(C)C1=O (stereo partly drawn) (cyclo([Ile(3ξ)][NMeV][NMeA][βAla][Pentanoyl(2-O,4-OH,5-Cl)]P)) | – | > 29.1 µM (inactive) | 47.6 µM (inactive) | > 100 µM (inactive) | > 100 µM (inactive) | > 80.2 µM | > 68.2 µM (inactive) | > 91.6 µM (inactive) | > 100 µM (inactive) | 0.46 µM (active) | > 100 µM (inactive) | > 36.2 µM (inactive) | > 100 µM (inactive) | > 100 µM (inactive) | 2.31 µM (inactive) | > 100 µM (inactive) | > 100 µM (inactive) | > 58.9 µM (inactive) | 0.923 µM (active) | > 93.3 µM (inactive)
CC(=O)OC1(C)C=CC(=O)C=C1 | 23.4 µM (inactive) | 31.6 µM (inactive) | > 100 µM (inactive) | 17.5 µM (inactive) | 46 µM (inactive) | 18 µM | 27.1 µM (inactive) | 61.7 µM (inactive) | 12.9 µM (inactive) | 32.6 µM (inactive) | 26.2 µM (inactive) | 53.5 µM (inactive) | 40.8 µM (inactive) | 31 µM (inactive) | 37.2 µM (inactive) | 18.3 µM (inactive) | > 100 µM (inactive) | 60.4 µM (inactive) | 17.1 µM (inactive) | 23.9 µM (inactive)
CC(C)(C)[Si](C)(C)OCC1OC(n2cc(F)c(=O)[nH]c2=O)CC1O[Si](C)(C)C(C)(C)C (stereo not drawn) | 8.63 µM (inactive) | 6.87 µM (inactive) | 10.5 µM (inactive) | 10.1 µM (inactive) | 12.5 µM (inactive) | 7.24 µM | 13.2 µM (inactive) | 11.1 µM (inactive) | 6.71 µM (inactive) | 13.3 µM (inactive) | 19.4 µM (inactive) | 6.46 µM (inactive) | 17 µM (inactive) | 14.5 µM (inactive) | 6.97 µM (inactive) | 13.6 µM (inactive) | 14 µM (inactive) | 9.93 µM (inactive) | 5.14 µM (inactive) | 10.8 µM (inactive)
COc1c(-c2ccc3c(c2)OCO3)oc2cc3c(c(OC)c2c1=O)OCO3 [MELITERNATIN] | 48.2 µM (inactive) | 23.5 µM (inactive) | 20.2 µM (inactive) | 22.3 µM (inactive) | 23.8 µM (inactive) | 30.8 µM | 15.4 µM (inactive) | 31.1 µM (inactive) | 18.7 µM (inactive) | 26.2 µM (inactive) | 18.7 µM (inactive) | 24.2 µM (inactive) | 29.8 µM (inactive) | 14.2 µM (inactive) | 22.6 µM (inactive) | 16.3 µM (inactive) | 18.3 µM (inactive) | 25.1 µM (inactive) | 23.9 µM (inactive) | 23 µM (inactive)
Cc1ccc(NC(=O)/C(=N/N(C)C)C(C2OC(=O)c3ccccc32)[N+](=O)[O-])cc1 (stereo not drawn) | > 100 µM (inactive) | > 100 µM (inactive) | > 100 µM (inactive) | > 100 µM (inactive) | > 100 µM (inactive) | > 100 µM | > 100 µM (inactive) | > 100 µM (inactive) | – | > 100 µM (inactive) | > 100 µM (inactive) | > 100 µM (inactive) | > 100 µM (inactive) | > 100 µM (inactive) | > 100 µM (inactive) | > 100 µM (inactive) | > 100 µM (inactive) | > 100 µM (inactive) | > 100 µM (inactive) | > 100 µM (inactive)
CSc1ncnc2c1ncn2CCC#N | > 100 µM (inactive) | > 100 µM (inactive) | > 100 µM (inactive) | > 100 µM (inactive) | > 100 µM (inactive) | – | > 100 µM (inactive) | > 100 µM (inactive) | > 100 µM (inactive) | > 100 µM (inactive) | > 100 µM (inactive) | > 100 µM (inactive) | > 100 µM (inactive) | > 100 µM (inactive) | > 100 µM (inactive) | > 100 µM (inactive) | > 100 µM (inactive) | > 100 µM (inactive) | – | > 100 µM (inactive)
Cc1c(Cl)c(=O)oc2cc(OCC(=O)c3ccccc3)ccc12 | – | > 100 µM (inactive) | > 100 µM (inactive) | > 100 µM (inactive) | > 100 µM (inactive) | > 100 µM | 31.3 µM (inactive) | > 100 µM (inactive) | > 100 µM (inactive) | > 100 µM (inactive) | > 100 µM (inactive) | > 100 µM (inactive) | > 100 µM (inactive) | > 100 µM (inactive) | > 100 µM (inactive) | > 100 µM (inactive) | > 100 µM (inactive) | > 100 µM (inactive) | > 100 µM (inactive) | > 100 µM (inactive)
O=C/C(=C1/C=Cc2cc([N+](=O)[O-])ccc2S1)c1ccccc1 | > 100 µM (inactive) | > 100 µM (inactive) | > 100 µM (inactive) | > 100 µM (inactive) | > 100 µM (inactive) | > 100 µM | > 100 µM (inactive) | > 100 µM (inactive) | > 100 µM (inactive) | > 100 µM (inactive) | > 100 µM (inactive) | > 100 µM (inactive) | > 100 µM (inactive) | > 100 µM (inactive) | > 100 µM (inactive) | > 100 µM (inactive) | > 100 µM (inactive) | – | – | > 100 µM (inactive)
